According to ChEMBL document CHEMBL1158194, “Phytogrowth-inhibitory compounds from Malmea depressa” (J Nat Prod, 1996):
≈ marks a conversion by molar mass, not a printed value. Each block holds one compound with its values, some of them ahead of it.

Experiments:
A549 = assay: Cytotoxicity against human A549 cells; assay type: functional; settings: read-out: ED50 (the source's name)
[1] = system: Amaranthus hypochondriacus; assay: Inhibition of phytogrowth in Amaranthus hypochondriacus seedlings measured after 24 hrs incubation under dark condition; assay type: functional, organism-based
[2] = Toxicity in brine shrimp larvae; assay type: organism-based; settings: artemia, in vivo
Echinochloa crus-galli = assay: Inhibition of phytogrowth in Echinochloa crus-galli seedlings measured after 48 hrs incubation under dark condition; assay type: functional, organism-based
Fusarium oxysporum = assay: Antifungal activity against Fusarium oxysporum; assay type: functional
HT-29 = assay: Cytotoxicity against human HT29 cells; assay type: functional; settings: read-out: ED50 (the source's name)
MCF7 = assay: Cytotoxicity against human MCF7 cells; assay type: functional; settings: read-out: ED50 (the source's name)
[3] = system: Trichophyton mentagrophytes; assay: Antifungal activity against Trichophyton mentagrophytes ATCC 9129 by agar dilution method; assay type: functional
Aspergillus niger = assay: Antifungal activity against Aspergillus niger ATCC 16888 by agar dilution method; assay type: functional

Compound: C=CCc1cc(OC)c(OC)c(OC)c1OC
EC50 (A549): 29 µg/mL (≈ 122 µM) | IC50 [1]: 43 µg/mL (≈ 180 µM) | LC50 [2]: 144 µg/mL (≈ 604 µM) | IC50 (Echinochloa crus-galli): 810 µg/mL (≈ 3400 µM) | MIC (Fusarium oxysporum): 250 µg/mL (≈ 1050 µM) | EC50 (HT-29): 71 µg/mL (≈ 298 µM) | EC50 (MCF7): 46 µg/mL (≈ 193 µM) | MIC [3]: 500 µg/mL (≈ 2100 µM)

Compound: COc1cc(C=O)c(OC)c(OC)c1OC
IC50 [1]: 822 µg/mL (≈ 3630 µM) | IC50 (Echinochloa crus-galli): > 1000 µg/mL

MIC (Aspergillus niger): 3 µg/mL (≈ 3.25 µM)
Compound: C[C@@H]1[C@H](O)[C@@H](C)/C=C/C=C/C=C/C=C/C=C/C=C/C=C/[C@H](O[C@@H]2O[C@H](C)[C@@H](O)[C@H](N)[C@@H]2O)C[C@@H]2O[C@](O)(C[C@@H](O)C[C@@H](O)[C@H](O)CC[C@@H](O)C[C@@H](O)CC(=O)O[C@H]1C)C[C@H](O)[C@H]2C(=O)O [AMPHOTERICIN B]

Compound: COc1cccc2c1C(=O)c1c(O)c3c(c(O)c1C2=O)C[C@@](O)(C(=O)CO)C[C@@H]3O[C@H]1C[C@H](N)[C@H](O)[C@H](C)O1 [DOXORUBICIN]
EC50 (A549): 0.03 µg/mL (≈ 0.0552 µM) | EC50 (HT-29): 0.007 µg/mL (≈ 0.0129 µM) | EC50 (MCF7): 0.3 µg/mL (≈ 0.552 µM)

MIC [3]: 2.6 µg/mL (≈ 7.37 µM)
Compound: COC1=CC(=O)C[C@@H](C)[C@]12Oc1c(Cl)c(OC)cc(OC)c1C2=O [GRISEOFULVIN]

Compound: CCCCC[C@H]1CCCCCCCCCC(=O)O[C@H]2[C@H](O)[C@@H](CO)O[C@@H](O[C@H]3[C@H](O1)O[C@H](C)[C@H](O)[C@@H]3O)[C@@H]2O[C@@H]1O[C@@H](C)[C@H](OC(=O)[C@@H](C)CC)[C@@H](O[C@@H]2O[C@@H](C)[C@H](O)[C@@H](O)[C@H]2O)[C@H]1OC(=O)[C@@H](C)CC [TRICOLORIN A]
IC50 (Echinochloa crus-galli): 12 µg/mL (≈ 11.7 µM)
